Laboratory results published in the supplement of paper PMC11061612.

What was measured:
[1] = tested on: HPAF-II (Pancreatic Carcinoma); assay: Bliss excess, mean over the matrix (fraction); higher = more synergy
Method in brief: (§1)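 Bliss excess equals the observed combination effect minus the expected value EA + EB − EA·EB, where EA and EB are the effects of each agent alone. Combination Emax is the second-highest inhibition within the matrix. Inhibition was scaled from CellTiter-Glo 2.0 luminescence, with 0 set by vehicle wells and 1 by blank wells, after 72 hours of two-drug dosing of cells plated in 1536-well plates.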

[2] = tested on: CPC-N (Small Cell Lung Carcinoma); assay: combination Emax (second highest fraction inhibited in the dose matrix, 72 h); higher = more inhibition; extreme values may be limits of the assay
Method in brief: as §1

[3] = tested on: NAMALWA (Burkitt's Lymphoma); assay: as above
Method in brief: as §1

SK-N-SH (Neuroblastoma) = assay: as above
Method in brief: as §1

[4] = tested on: CL-11 (Colorectal Carcinoma); assay: as above
Method in brief: as §1

GAK (Melanoma) = assay: as above
Method in brief: as §1

[5] = tested on: SNU-423 (Hepatocellular Carcinoma); assay: as above
Method in brief: as §1

[6] = tested on: SK-CO-1 (Colorectal Carcinoma); assay: as above
Method in brief: as §1

[7] = tested on: SAT (Head and Neck Carcinoma); assay: as above
Method in brief: as §1

ES6 (Ewing's Sarcoma) = assay: as above
Method in brief: as §1

[8] = tested on: ZR-75-30 (Breast Carcinoma); assay: as above
Method in brief: as §1

[9] = tested on: NCI-H1963 (Small Cell Lung Carcinoma); assay: as above
Method in brief: as §1

[10] = tested on: HPAF-II (Pancreatic Carcinoma); assay: as above
Method in brief: as §1

[11] = tested on: MOLT-13 (T-Lymphoblastic Leukemia); assay: as above
Method in brief: as §1

[12] = tested on: TUR (Acute Myeloid Leukemia); assay: as above
Method in brief: as §1

NCI-H226 (Mesothelioma) = assay: as above
Method in brief: as §1

| SMILES | Bliss excess [1] | combination Emax [2] | combination Emax [3] | combination Emax (SK-N-SH (Neuroblastoma)) | combination Emax [4] | combination Emax (GAK (Melanoma)) | combination Emax [5] | combination Emax [6] | combination Emax [7] | combination Emax (ES6 (Ewing's Sarcoma)) | combination Emax [8] | combination Emax [9] | combination Emax [10] | combination Emax [11] | combination Emax [12] | combination Emax (NCI-H226 (Mesothelioma)) |
| --- | --- | --- | --- | --- | --- | --- | --- | --- | --- | --- | --- | --- | --- | --- | --- | --- |
| COc1nnc2ccc(N3CCC(c4ccc(OCCN5CCN(C)C(=O)[C@H]5C)cc4)CC3)nn12 [AZD5153] + Cc1c2c(nn1C)CSCc1cc(n(C)n1)CSc1cc(c3ccccc3c1)OCCCc1c(C(=O)O)n(C)c3c-2c(Cl)ccc13 [AZD5991] (first compound max 1 µM, 7x7, partner max 1 µM) | -0.0124 | 0.751 | 0.966 | 0.526 | 0.768 | 0.836 | 0.431 | 0.403 | 0.914 | 0.45 | 0.29 | 0.89 | 0.35 | 1 | 0.998 | 0.407 |
| NC1(C(=O)N[C@@H](CCO)c2ccc(Cl)cc2)CCN(c2ncnc3[nH]ccc23)CC1 [Capivasertib] + COc1nnc2ccc(N3CCC(c4ccc(OCCN5CCN(C)C(=O)[C@H]5C)cc4)CC3)nn12 [AZD5153] (first compound max 10 µM, 7x7, partner max 1 µM) | 0.0188 | 0.811 | 0.961 | 0.624 | 0.688 | 0.376 | 0.513 | 0.438 | 0.811 | 0.518 | 0.353 | 0.767 | 0.389 | 0.873 | 1 | 0.402 |
| COc1nnc2ccc(N3CCC(c4ccc(OCCN5CCN(C)C(=O)[C@H]5C)cc4)CC3)nn12 [AZD5153] + CC1(C)CCC(CN2CCN(c3ccc(C(=O)NS(=O)(=O)c4ccc(NCC5CCOCC5)c([N+](=O)[O-])c4)c(Oc4cnc5[nH]ccc5c4)c3)CC2)=C(c2ccc(Cl)cc2)C1 [Venetoclax] (first compound max 1 µM, 7x7, partner max 1 µM) | -0.0057 | 0.539 | 0.761 | 0.623 | 0.677 | 0.478 | 0.41 | 0.321 | 0.723 | 0.292 | 0.235 | 0.988 | 0.365 | 0.987 | 0.458 | 0.438 |
| COc1nnc2ccc(N3CCC(c4ccc(OCCN5CCN(C)C(=O)[C@H]5C)cc4)CC3)nn12 [AZD5153] + C[C@@H]1COCCN1C2=NC(=NC(=C2)C3(CC3)[S@](=N)(=O)C)C4=C5C=CNC5=NC=C4 [AZD6738] (first compound max 1 µM, 7x7, partner max 10 µM) | 0.0002 | 0.967 | 0.914 | 0.861 | 0.833 | 0.605 | 0.517 | 0.714 | 0.804 | 0.585 | 0.34 | 0.91 | 0.512 | 1 | 0.984 | 0.37 |
| NC1(C(=O)N[C@@H](CCO)c2ccc(Cl)cc2)CCN(c2ncnc3[nH]ccc23)CC1 [Capivasertib] + Cn1cnc2c(F)c(Nc3ccc(Br)cc3Cl)c(C(=O)NOCCO)cc21 [Selumetinib] (first compound max 10 µM, 7x7, partner max 10 µM) | 0.0623 | 0.332 | 0.387 | 0.333 | 0.8 | 0.757 | 0.491 | 0.886 | 0.677 | 0.434 | 0.501 | 0.492 | 0.75 | 0.555 | 0.924 | 0.316 |
| COc1nnc2ccc(N3CCC(c4ccc(OCCN5CCN(C)C(=O)[C@H]5C)cc4)CC3)nn12 [AZD5153] + C=CCn1c(=O)c2cnc(Nc3ccc(N4CCN(C)CC4)cc3)nc2n1-c1cccc(C(C)(C)O)n1 [AZD1775] (first compound max 1 µM, partner max 1 µM) | -0.0147 | 0.918 | 0.969 | 0.645 | 0.809 | 0.471 | 0.462 | 0.56 | 0.785 | 0.516 | 0.309 | 0.952 | 0.449 | 1 | 0.867 | 0.448 |
| NC1(C(=O)N[C@@H](CCO)c2ccc(Cl)cc2)CCN(c2ncnc3[nH]ccc23)CC1 [Capivasertib] + CC(C)n1c(=O)n(C)c2cnc3cc(F)c(-c4ccc(OCCCN5CCCCC5)nc4)cc3c21 [AZD1390] (first compound max 10 µM, 7x7, partner max 0.3 µM) | -0.0016 | 0.399 | 0.44 | 0.349 | 0.223 | 0.219 | 0.503 | 0.281 | 0.555 | 0.349 | 0.419 | 0.434 | 0.245 | 0.132 | 0.809 | 0.335 |
| COc1nnc2ccc(N3CCC(c4ccc(OCCN5CCN(C)C(=O)[C@H]5C)cc4)CC3)nn12 [AZD5153] + Cn1cnc2c(F)c(Nc3ccc(Br)cc3Cl)c(C(=O)NOCCO)cc21 [Selumetinib] (first compound max 1 µM, 7x7, partner max 10 µM) | 0.0634 | 0.451 | 0.771 | 0.521 | 0.967 | 0.612 | 0.424 | 0.804 | 0.843 | 0.297 | 0.305 | 0.757 | 0.868 | 0.979 | 0.744 | 0.377 |
